Measured values reported in patent US20240247224A1, “SYSTEM AND METHOD FOR RAPID SUSCEPTIBILITY TESTING” (priority 2023, published 2024).
In brackets after ≈: the same amount, converted by molar mass. Where two headings read alike, the source gives them in different places. Blank lines part the entries; values can stand above or below the compound they belong to.

How the values were obtained:
[1] = system: E faecalis 29212 (QC strain); assay: Optical scatter phenotypic AST on the instrument, E faecalis 29212; type: cell-based; conditions: E faecalis 29212 (QC strain) in CAMHB with blood (to mimic a positive blood culture vial); FIG. 29; read-out: Our MIC based on the curves
Excerpt: (§1) In one embodiment, the application of the system is to conduct phenotypic antimicrobial susceptibility testing on gram positive and gram negative organisms from isolates or directly from a positive blood sample. In this embodiment, our method deploys a series of tightly controlled environmental factors, such as temperature, humidity, CO2, along with the use of Mueller-Hinton-II defined media allowing for the testing of these organisms as specified by CLSI. Using specific antibiotics, at various ranges, antibiotic classes, concentrations across the wells of the cassette and allowing bacteria to culture in the presence of antibiotic, one can determine the phenotypic AST results.
(§2) The workflow involves use of a sample preparation kit (if and as needed) to process the sample to be tested (based on the sample type). […] The cassette is then loaded into one of the open bays/readers within the instrument. The reader also has an RFID scanner to record the cassette location i.e., the bay/reader it is inserted into within the instrument. The cassette is then autonomously incubated within the instrument, during which all wells within the cassette are read independently by the reader at regular specified time intervals, until the test is complete. […] Based on the statistical analysis, if the signal change was determined as significant for a given well that well is considered to have detected the analyte. […]

[2] = system: E faecalis 29212 (QC strain); conditions: FIG. 29; cited from earlier work
NG 49226 (QC strain) [3] = assay: Optical scatter phenotypic AST on the instrument, NG 49226; type: cell-based, Neisseria gonorrhoeae; conditions: read-out: Our MIC based on the curves
Excerpt: (§3) In one embodiment, the application of the system disclosed herein is to conduct phenotypic antimicrobial susceptibility testing on Neisseria gonorrhoeae (NG). NG is a fastidious organism and a difficult organism to culture in liquid nutrient broth. The instant invention uses a proprietary media designed for the broth culture of NG. Using specific antibiotics, each at multiple concentrations in each well within the cassette and allowing bacteria to culture in the presence of antibiotic, one can determine the phenotypic AST results. Data generated and illustrated in the figures was generated from samples ranging from single wells or a plurality of wells within one or more cassettes.
(§4) In one embodiment, the application of the system is to conduct phenotypic antimicrobial susceptibility testing on NG. […]
(§5) The workflow involves use of a sample preparation kit (if and as needed) to process the sample to be tested (based on the sample type). […] The cassette is then loaded into one of the open bays/readers within the instrument. The reader also has an RFID scanner to record the cassette location i.e., the bay/reader it is inserted into within the instrument. The cassette is then autonomously incubated within the instrument, during which all wells within the cassette are read independently by the reader at regular specified time intervals, until the test is complete. […]

AR Isolate AR 0817 = assay: Optical scatter phenotypic AST on the instrument, AR Isolate AR 0817; type: cell-based; conditions: Neisseria gonorrhoeae, FIG. 27, read-out: Our MIC from the instrument
Excerpt: as §3, §4, §5

E coli 25922 (QC strain) [4] = conditions: FIG. 25; cited from earlier work
E coli 25922 (QC strain) [5] = assay: Optical scatter phenotypic AST on the instrument, E coli 25922; type: cell-based; conditions: normalized reading, 650 nm, FIG. 25, read-out: Our MIC based on the curves
Excerpt: as §1, §2

NG 49226 (QC strain) [6] = conditions: FIG. 24; cited from earlier work
[7] = system: NG AR 0165 (Neisseria gonorrhoeae antibiotic resistant isolate 0165); assay: Optical scatter phenotypic AST on the instrument, NG AR 0165; type: cell-based; conditions: normalized reading, 650 nm, FIG. 22, read-out: Our MIC based on the curves
Excerpt: as §3, §4, §5

[8] = system: NG AR 0165 (Neisseria gonorrhoeae antibiotic resistant isolate 0165); conditions: FIG. 22; cited from earlier work
[9] = system: Staphylococcus aureus in diluted positive blood culture sample; assay: In-house broth microdilution test (expected MIC), Staphylococcus aureus; type: cell-based; conditions: clinical positive blood culture sample, FIG. 34, read-out: expected MIC value (based on in-house broth microdilution test)
Method: (§6) BMD refers to liquid suspension of an isolated culture in the presence of varying types and concentrations of antibiotics. The liquid cultures are incubated for a period of time at which the turbidity or cloudiness of the suspension is measured either visually, optically or using other detection means. The turbidity is caused by bacteria multiplying and/or a “growing” culture (resistant), whereas a susceptible culture or isolate would appear as clear or lacking turbidity. Use of a reading device permits this process to be semi-automated.

[10] = system: Staphylococcus aureus in diluted positive blood culture sample; assay: Direct-from-positive blood culture AST on the instrument, Staphylococcus aureus; type: cell-based; conditions: diluted positive blood culture sample from the clinical lab, FIG. 34, read-out: Our MIC based on the curves
Excerpt: (§7) In one embodiment, the application of the system is to conduct phenotypic antimicrobial susceptibility testing on gram positive and gram-negative organisms from a positive blood sample without plating for an isolate. In this embodiment, the positive blood sample is adjusted to the desired microbial concentration. In this embodiment our method deploys a series of tightly controlled environmental factors, such as temperature, humidity, CO2, along with the use of Mueller-Hinton-II defined media allowing for the testing of these organisms as specified by CLSI. […]
as §5, with “complete. The test completion is determined either by the prespecified time period for the cassette to be run, or until the software algorithm running the data analysis in real-time determines the necessary change to the call to complete the test.” for “complete.”

[11] = system: Serratia marcescens in diluted positive blood culture sample; assay: Direct-from-positive blood culture AST on the instrument, Serratia marcescens; type: cell-based; conditions: diluted positive blood culture sample from the clinical lab, FIG. 33, read-out: Our MIC based on the curves
Excerpt: as §7
as §5, with “complete. The test completion is determined either by the prespecified time period for the cassette to be run, or until the software algorithm running the data analysis in real-time determines the necessary change to the call to complete the test.” for “complete.”

[12] = system: Serratia marcescens in diluted positive blood culture sample; assay: In-house broth microdilution test (expected MIC), Serratia marcescens; type: cell-based; conditions: clinical positive blood culture sample, FIG. 33, read-out: expected MIC value (based on in-house broth microdilution test)
Method: as §6

K pneumoniae 700603 = assay: Optical scatter phenotypic AST on the instrument, K pneumoniae 700603; type: cell-based; conditions: K pneumoniae 700603 in CAMHB with blood (to mimic a positive blood culture vial); FIG. 30; read-out: Our MIC based on the curves
Excerpt: as §1, §2

[13] = system: NG AR 0179 (Neisseria gonorrhoeae antibiotic resistant isolate 0179); assay: Optical scatter phenotypic AST on the instrument, NG AR 0179; type: cell-based; conditions: normalized reading, 650 nm, FIG. 23, read-out: Our MIC based on the curves
Excerpt: as §3, §4, §5

[14] = system: S aureus 29213 (QC strain); assay: Optical scatter phenotypic AST on the instrument, S aureus 29213; type: cell-based; conditions: S aureus 29213 (QC strain) in cation adjusted Mueller Hinton Broth (CAMHB); FIG. 28; read-out: Our MIC based on the curves
Excerpt: as §1, §2

SMILES: CN[C@H](CC(C)C)C(=O)N[C@H]1C(=O)N[C@@H](CC(N)=O)C(=O)N[C@H]2C(=O)N[C@H]3C(=O)N[C@H](C(=O)N[C@H](C(=O)O)c4cc(O)cc(O)c4-c4cc3ccc4O)[C@H](O)c3ccc(c(Cl)c3)Oc3cc2cc(c3O[C@@H]2O[C@H](CO)[C@@H](O)[C@H](O)[C@H]2O[C@H]2C[C@](C)(N)[C@H](O)[C@H](C)O2)Oc2ccc(cc2Cl)[C@H]1O [Vancomycin]
- MIC [1]: 4 µg/mL (≈ 2.76 µM)
- expected MIC value [2]: 1 to 4 µg/mL

SMILES: C=CC1=C(C(=O)O)N2C(=O)[C@@H](NC(=O)/C(=N\OCC(=O)O)c3csc(N)n3)[C@H]2SC1 [Cefixime]
- MIC (NG 49226 (QC strain) [3]; Neisseria gonorrhoeae 49226 (QC strain), 5-well cassette system, FIG. 26): 0.008 µg/mL (≈ 0.0176 µM)
- MIC (AR Isolate AR 0817): 0.125 µg/mL (≈ 0.276 µM)

SMILES: O=C(O)c1cn(C2CC2)c2cc(N3CCNCC3)c(F)cc2c1=O [Ciprofloxacin]
- expected MIC value range (BMD method) (E coli 25922 (QC strain) [4]): 0.004 to 0.016 µg/mL
- MIC (NG 49226 (QC strain) [3]; Neisseria gonorrhoeae, NG 49226 (QC strain), normalized reading, 650 nm, FIG. 24): 0.002 µg/mL (≈ 0.00604 µM)
- MIC (E coli 25922 (QC strain) [5]): 0.008 µg/mL (≈ 0.0241 µM)
- expected MIC value range (per CDC agar dilution testing) (NG 49226 (QC strain) [6]): 0.001 to 0.008 µg/mL
- MIC [7]: 4 µg/mL (≈ 12.1 µM)
- expected MIC value (per CDC agar dilution testing) [8]: 8 µg/mL

SMILES: Cc1onc(-c2ccccc2)c1C(=O)N[C@@H]1C(=O)N2[C@@H]1SC(C)(C)[C@@H]2C(=O)O [Oxacillin]
- MIC [9]: > 2 µg/mL
- MIC [10]: > 2 µg/mL

- MIC [12]: > 16 µg/mL
SMILES: CC1(C)S[C@@H]2[C@H](NC(=O)[C@H](N)c3ccccc3)C(=O)N2[C@H]1C(=O)O [ampicillin]
- MIC [11]: 16 µg/mL (≈ 45.8 µM)

SMILES: C[C@@H](O)[C@H]1C(=O)N2C(C(=O)O)=C(SCCN=CN)C[C@H]12 [Imipenem]
- MIC (K pneumoniae 700603): 0.5 µg/mL (≈ 1.67 µM)

SMILES: CN(C)[C@@H]1C(O)=C(C(N)=O)C(=O)[C@@]2(O)C(O)=C3C(=O)c4c(O)cccc4[C@@](C)(O)[C@H]3C[C@@H]12 [Tetracycline]
- MIC [13]: 2 µg/mL (≈ 4.5 µM)
- MIC [14]: 0.008 µg/mL (≈ 0.018 µM)
